System: patients at risk for a vascular occlusion
Assay: ascorbic acid infusion as adjuvant to thrombolytic treatment (streptokinase or heparin) in patients, compared with patients receiving no ascorbic acid
Format: in vivo, humans
Details: 20 patients; infusion of 70 ml of a 15% ascorbic acid solution diluted with physiological saline, pH 6.0 to 7.0, over four hours, with streptokinase (1.0×106 units) or heparin 2.5 mg/kg; versus equal number of patients with no ascorbic acid infusion but otherwise the same therapy
Experimental: Treatment of a patient threatened by a vascular occlusion is administered, for example, by first giving the patient streptokinase (1.0×106 units) or heparin in a dose of 2.5 mg/kg […] in the form of an infusion over a period of 30 minutes. At the same time, the patient receives over a period of four hours an infusion of 70 ml of a 15% ascorbic acid solution diluted with physiological saline solution and adjusted to a pH of 6.0 to 7.0. The patient's condition is monitored continuously by an electrocardiogram. A group of 20 patients at risk for a vascular occlusion were treated by the procedure described above and compared with an equal number of patients receiving no ascorbic acid infusion during the operation but otherwise the same therapy.

O=C1O[C@H]([C@@H](O)CO)C(O)=C1O [ascorbic acid]
complications during the operation and during the subsequent two-week observation phase: significantly fewer complications

Reference: patent US20020051795A1, “ASCORBIC ACID AS AN ADJUVANT IN THE REMOVAL OF VASCULAR OCCLUSIONS” (priority 1997, published 2002)
